Results from the OligoGym collection.
HELM strings list units from the 5' end as sugar, base in round brackets, then linkage (d deoxyribose, r ribose, m 2'-O-methyl, p phosphodiester). Strings are as the collection lists them; they lack the last nucleoside at the 3' end of the tested compound. [moe] = 2'-O-(2-methoxyethyl) (MOE); [sp] = phosphorothioate linkage; [m5C] = 5-methylcytosine

biological target: PRNP; test: mouse, dose not given; settings: ASO

Substance	3 h FOB score [score 0-7]
RNA1{[moe](A)[sp].[moe]([m5C])p.[moe](T)p.[moe](T)p.[moe](G)p.[moe](T)p.d([m5C])[sp].d(A)[sp].d(G)[sp].d(T)[sp].d(T)[sp].d(T)[sp].d(T)[sp].d(T)[sp].d([m5C])[sp].d([m5C])[sp].[moe]([m5C])p.[moe]([m5C])[sp].[moe](A)}$$$$ (last 3' nucleoside missing)	0.25
RNA1{[moe](G)[sp].[moe](T)p.[moe](G)p.[moe](A)p.[moe](A)[sp].d(T)[sp].d(A)[sp].d(T)[sp].d(G)[sp].d(T)[sp].d([m5C])[sp].d([m5C])[sp].d(T)[sp].d([m5C])[sp].d(T)[sp].[moe](A)p.[moe](G)p.[moe]([m5C])[sp].[moe]([m5C])}$$$$ (last 3' nucleoside missing)	2.5
RNA1{[moe]([m5C])[sp].[moe]([m5C])p.[moe](A)p.[moe](T)p.[moe](T)[sp].d(T)[sp].d(T)[sp].d([m5C])[sp].d(T)[sp].d(G)[sp].d(T)[sp].d(G)[sp].d([m5C])[sp].d(T)[sp].d(T)[sp].[moe](T)p.[moe](T)p.[moe]([m5C])[sp].[moe]([m5C])}$$$$ (last 3' nucleoside missing)	4
RNA1{[moe](G)[sp].[moe](T)p.[moe]([m5C])p.[moe]([m5C])p.[moe](A)[sp].d(A)[sp].d(A)[sp].d(A)[sp].d(A)[sp].d(T)[sp].d(A)[sp].d(A)[sp].d(G)[sp].d(T)[sp].d([m5C])[sp].[moe]([m5C])p.[moe](A)p.[moe](G)[sp].[moe](A)}$$$$ (last 3' nucleoside missing)	1
RNA1{[moe]([m5C])[sp].[moe]([m5C])p.[moe](A)p.[moe](G)p.[moe](A)[sp].d(G)[sp].d(G)[sp].d(T)[sp].d(T)[sp].d([m5C])[sp].d(A)[sp].d(G)[sp].d(T)[sp].d(G)[sp].d(T)[sp].[moe](T)p.[moe](G)p.[moe](T)[sp].[moe](G)}$$$$ (last 3' nucleoside missing)	6.25
RNA1{[moe](T)[sp].[moe]([m5C])p.[moe](A)p.[moe]([m5C])p.[moe](T)[sp].d(G)[sp].d(T)[sp].d(G)[sp].d(A)[sp].d(A)[sp].d(T)[sp].d(A)[sp].d(T)[sp].d(G)[sp].d(T)[sp].[moe]([m5C])p.[moe]([m5C])p.[moe](T)[sp].[moe]([m5C])}$$$$ (last 3' nucleoside missing)	5
RNA1{[moe](A)[sp].[moe]([m5C])p.[moe](A)p.[moe](A)p.[moe](T)[sp].d([m5C])[sp].d(T)[sp].d(G)[sp].d(T)[sp].d(T)[sp].d(G)[sp].d(T)[sp].d(G)[sp].d(G)[sp].d(T)[sp].[moe](T)p.[moe]([m5C])p.[moe](A)[sp].[moe](G)}$$$$ (last 3' nucleoside missing)	6.5
RNA1{[moe](G)[sp].[moe](T)p.[moe](G)p.[moe]([m5C])p.[moe](T)[sp].d(T)[sp].d(A)[sp].d(T)[sp].d(T)[sp].d(A)[sp].d(T)[sp].d(T)[sp].d([m5C])[sp].d(A)[sp].d(T)[sp].[moe](G)p.[moe](T)p.[moe](T)[sp].[moe]([m5C])}$$$$ (last 3' nucleoside missing)	0.5
RNA1{[moe](T)[sp].[moe](A)p.[moe]([m5C])p.[moe](T)p.[moe]([m5C])[sp].d(T)[sp].d(A)[sp].d(T)[sp].d(G)[sp].d(T)[sp].d(T)[sp].d(T)[sp].d(T)[sp].d([m5C])[sp].d([m5C])[sp].[moe](A)p.[moe](G)p.[moe](T)[sp].[moe](G)}$$$$ (last 3' nucleoside missing)	1.75
RNA1{[moe](G)[sp].[moe](T)p.[moe]([m5C])p.[moe](A)p.[moe](G)p.d(T)[sp].d(T)[sp].d(T)[sp].d(T)[sp].d(T)[sp].d([m5C])[sp].d([m5C])[sp].d([m5C])[sp].d([m5C])[sp].[moe](A)p.[moe]([m5C])p.[moe](A)[sp].[moe](T)}$$$$ (last 3' nucleoside missing)	0
RNA1{[moe]([m5C])[sp].[moe](T)p.[moe](G)p.[moe](G)p.[moe](T)[sp].d(G)[sp].d(A)[sp].d(T)[sp].d(T)[sp].d(T)[sp].d(T)[sp].d(T)[sp].d(T)[sp].d([m5C])[sp].d([m5C])[sp].[moe](T)p.[moe](T)p.[moe](T)[sp].[moe]([m5C])}$$$$ (last 3' nucleoside missing)	0
RNA1{[moe]([m5C])[sp].[moe](A)p.[moe](A)p.[moe](G)p.[moe]([m5C])[sp].d(A)[sp].d(G)[sp].d(T)[sp].d(T)[sp].d([m5C])[sp].d(T)[sp].d(T)[sp].d(T)[sp].d(T)[sp].d([m5C])[sp].[moe](T)p.[moe](T)p.[moe](T)[sp].[moe](G)}$$$$ (last 3' nucleoside missing)	2.25
RNA1{[moe]([m5C])[sp].[moe](T)p.[moe](T)p.[moe](T)p.[moe]([m5C])[sp].d([m5C])[sp].d(T)[sp].d(G)[sp].d(A)[sp].d(T)[sp].d(A)[sp].d(G)[sp].d(T)[sp].d(T)[sp].d([m5C])[sp].[moe](A)p.[moe]([m5C])p.[moe](T)[sp].[moe](G)}$$$$ (last 3' nucleoside missing)	2.5
RNA1{[moe](A)[sp].[moe](A)p.[moe](G)p.[moe]([m5C])p.[moe]([m5C])[sp].d(T)[sp].d(T)[sp].d(T)[sp].d([m5C])[sp].d(A)[sp].d(T)[sp].d(A)[sp].d(T)[sp].d(A)[sp].d(T)[sp].[moe](G)p.[moe](T)p.[moe](T)[sp].[moe](A)}$$$$ (last 3' nucleoside missing)	0
RNA1{[moe](G)[sp].[moe](T)p.[moe](T)p.[moe]([m5C])p.[moe](A)[sp].d(G)[sp].d(A)[sp].d(G)[sp].d(A)[sp].d(A)[sp].d(T)[sp].d([m5C])[sp].d(T)[sp].d(T)[sp].d(T)[sp].[moe]([m5C])p.[moe](A)p.[moe]([m5C])[sp].[moe]([m5C])}$$$$ (last 3' nucleoside missing)	0
RNA1{[moe](G)[sp].[moe](T)[sp].[moe]([m5C])p.[moe](A)p.[moe](G)p.[moe](T)p.[moe](T)p.d(T)[sp].d(T)[sp].d(T)[sp].d([m5C])[sp].d([m5C])[sp].d([m5C])[sp].d([m5C])[sp].d(A)[sp].d([m5C])[sp].d(A)[sp].[moe](T)p.[moe](A)}$$$$ (last 3' nucleoside missing)	0
RNA1{[moe](T)[sp].[moe]([m5C])p.[moe](T)p.[moe](A)p.[moe](T)[sp].d(G)[sp].d(T)[sp].d(T)[sp].d(T)[sp].d(T)[sp].d([m5C])[sp].d([m5C])[sp].d(A)[sp].d(G)[sp].d(T)[sp].[moe](G)p.[moe]([m5C])p.[moe]([m5C])[sp].[moe]([m5C])}$$$$ (last 3' nucleoside missing)	0
RNA1{[moe](A)[sp].[moe](T)p.[moe](T)p.[moe](T)p.[moe](G)[sp].d(A)[sp].d(T)[sp].d(T)[sp].d(T)[sp].d([m5C])[sp].d(A)[sp].d(A)[sp].d(G)[sp].d(T)[sp].d([m5C])[sp].[moe]([m5C])p.[moe]([m5C])p.[moe](A)[sp].[moe](G)}$$$$ (last 3' nucleoside missing)	5.75
RNA1{[moe](G)[sp].[moe](T)p.[moe](T)p.[moe]([m5C])p.[moe](A)[sp].d([m5C])[sp].d(T)[sp].d(G)[sp].d(T)[sp].d(G)[sp].d(A)[sp].d(A)[sp].d(T)[sp].d(A)[sp].d(T)[sp].[moe](G)p.[moe](T)p.[moe]([m5C])[sp].[moe]([m5C])}$$$$ (last 3' nucleoside missing)	4.25
RNA1{[moe](G)[sp].[moe]([m5C])p.[moe](T)p.[moe](T)p.[moe](A)p.[moe](T)p.d(T)[sp].d(A)[sp].d(T)[sp].d(T)[sp].d([m5C])[sp].d(A)[sp].d(T)[sp].d(G)[sp].d(T)[sp].d(T)[sp].[moe]([m5C])p.[moe](T)[sp].[moe]([m5C])}$$$$ (last 3' nucleoside missing)	1.75
RNA1{[moe](T)[sp].[moe](A)p.[moe](T)p.[moe](G)p.[moe](T)p.d(T)[sp].d(T)[sp].d(T)[sp].d([m5C])[sp].d([m5C])[sp].d(A)[sp].d(G)[sp].d(T)[sp].d(G)[sp].[moe]([m5C])p.[moe]([m5C])p.[moe]([m5C])[sp].[moe](A)}$$$$ (last 3' nucleoside missing)	5.25
RNA1{[moe](G)[sp].[moe]([m5C])p.[moe]([m5C])p.[moe](A)p.d([m5C])[sp].d(A)[sp].d(T)[sp].d(A)[sp].d(T)[sp].d(A)[sp].d(G)[sp].d(G)[sp].d(G)[sp].d(T)[sp].[moe]([m5C])p.[moe]([m5C])p.[moe](T)p.[moe](T)[sp].[moe](T)}$$$$ (last 3' nucleoside missing)	3.75
RNA1{[moe](G)[sp].[moe]([m5C])p.[moe](T)p.[moe]([m5C])p.[moe](T)[sp].d(A)[sp].d(T)[sp].d(T)[sp].d(A)[sp].d(A)[sp].d(T)[sp].d(A)[sp].d(G)[sp].d(G)[sp].d(T)[sp].[moe](T)p.[moe](A)p.[moe](G)[sp].[moe](G)}$$$$ (last 3' nucleoside missing)	4.25
RNA1{[moe](T)[sp].[moe](G)p.[moe](G)p.[moe](T)p.[moe](G)[sp].d(T)[sp].d(T)[sp].d(A)[sp].d(T)[sp].d(A)[sp].d([m5C])[sp].d(A)[sp].d(T)[sp].d(T)[sp].d(T)[sp].[moe](A)p.[moe](G)p.[moe](G)[sp].[moe]([m5C])}$$$$ (last 3' nucleoside missing)	1
RNA1{[moe](A)[sp].[moe](A)p.[moe]([m5C])p.[moe](A)p.[moe](T)[sp].d(T)[sp].d(T)[sp].d(G)[sp].d(A)[sp].d(T)[sp].d(T)[sp].d(T)[sp].d([m5C])[sp].d(A)[sp].d(A)[sp].[moe](G)p.[moe](T)p.[moe]([m5C])[sp].[moe]([m5C])}$$$$ (last 3' nucleoside missing)	2.5
RNA1{[moe](T)[sp].[moe](G)p.[moe](G)p.[moe]([m5C])p.[moe](A)p.[moe]([m5C])p.d(T)[sp].d(T)[sp].d(T)[sp].d([m5C])[sp].d(T)[sp].d(T)[sp].d(T)[sp].d(T)[sp].d(T)[sp].d(A)[sp].[moe](T)p.[moe](T)[sp].[moe](T)}$$$$ (last 3' nucleoside missing)	0.25
